Paper PMC2981816, “Oxalyl retro-peptide gelators. Synthesis, gelation properties and stereochemical effects” (Beilstein Journal of Organic Chemistry, 2010)

Experiments:
Assay type in all cases: physicochemical
[1] = Gelation test: gelator effectiveness (Geff) and minimal gelation concentration in solvents and solvent mixtures; parameters: key: sol.: soluble; ins.: insoluble; cr.: crystallization; [A]: gel/sol mixture; settings: max. volume immobilized by 10 mg gelator, Table 3
Method: (§1) Gelation observed for selected gelator–solvent pairs is expressed by gelator effectiveness (Geff, mL) corresponding to the maximal volume of solvent that could be immobilized by 10 mg of the gelator (Table 1). […] However, 3a and 5a also gelled small to moderate volumes of EtOH and rac-2-octanol, whilst Leu incorporating 1a formed gels with the more lipophilic solvents, decalin and tetralin. […] Apparently, the retro-peptides incorporating aliphatic and aromatic amino acids are less versatile gelators compared to retro-peptides containing […] amino acid fragments. The latter points to the importance of intermolecular lipophilic interactions for the stabilization of gel assemblies being stronger in the case of identical amino acids either lipophilic or aromatic, and weaker for mixed aromatic-lipophilic amino acid fragments present in the gelator molecule.

[2] = as above; parameters: key: sol.: soluble; ins.: insoluble; cr.: crystalline; [A]: gel/sol mixture; settings: max. volume immobilized by 10 mg gelator, Table 3
Method: as §1

[3] = as above; parameters: key to Gelator effectiveness (Geff): sol.: soluble; ins.: insoluble; cr.: crystallization; [A]: gel/sol mixture; settings: for Gelation effectiveness (Geff): Table 3
Method: as §1

[4] = as above
[5] = max. volume immobilized by 10 mg gelator, H2O/DMF mixture, given as volume + volume
[6] = max. volume immobilized by 10 mg gelator, H2O/DMSO mixture, given as volume + volume
[7] = max. volume immobilized by 10 mg gelator, tetralin

With CC(C)C[C@H](NC(=O)[C@H](CC(C)C)NC(=O)C(=O)N[C@@H](CC(C)C)C(=O)N[C@@H](CC(C)C)C(N)=O)C(N)=O [(S,S)-1c, bis(LeuLeuNH2)] the “Gelation effectiveness (Geff)” value ([1]; CH3CN) was “ins”, the “Gelation effectiveness (Geff)” value ([1]; H2O) was “ins” and the “Gelation effectiveness (Geff)” value ([1]; THF) was “ins”. For the same compound, the “Gelation effectiveness (Geff)” value ([1]; p-xylene) was “ins”, the “Gelation effectiveness (Geff)” value ([1]; ±2-octanol) was “ins” and the “Gelation effectiveness (Geff)” value ([2]; EtOH) was “cr”. For the same compound, the “Gelation effectiveness (Geff)” value ([3]; max. volume immobilized by 10 mg gelator, CH2Cl2 + DMSO (footnote a), volume + volume) was 1.05+0.2^a mL, the “Gelation effectiveness (Geff)” value [3, 5] was 0.45+0.75 mL and the “Gelation effectiveness (Geff)” value [3, 6] was 0.55+1.4 mL. For the same compound, the “Gelation effectiveness (Geff)” value [3, 7] was 7.3 mL and the “Gelation effectiveness (Geff)” value ([3]; max. volume immobilized by 10 mg gelator, toluene + DMSO (footnote a), volume + volume) was 1.05+0.2^a mL.
For O=C(N[C@H](C(=O)N[C@H](C(=O)O)c1ccccc1)c1ccccc1)C(=O)N[C@H](C(=O)N[C@H](C(=O)O)c1ccccc1)c1ccccc1 [3a, (S,S)-N,N'-Oxalyl-bis(phenylglycyl-phenylglycine)], the solubility in water [4] was “insoluble”.
In the case of NC(=O)[C@H](Cc1ccccc1)NC(=O)[C@H](Cc1ccccc1)NC(=O)C(=O)N[C@@H](Cc1ccccc1)C(=O)N[C@@H](Cc1ccccc1)C(N)=O [5c, bis(PhePheNH2)], the “Gelation effectiveness (Geff)” value ([1]; CH2Cl2) is reported as “ins”, the “Gelation effectiveness (Geff)” value ([1]; CH3CN) is reported as “ins” and the “Gelation effectiveness (Geff)” value ([1]; EtOH) is reported as “ins”. For the same compound, the “Gelation effectiveness (Geff)” value ([1]; H2O) was “ins”, the “Gelation effectiveness (Geff)” value ([1]; THF) was “ins” and the “Gelation effectiveness (Geff)” value ([1]; p-xylene) was “ins”. For the same compound, the “Gelation effectiveness (Geff)” value ([1]; toluene) was “ins”, the “Gelation effectiveness (Geff)” value ([1]; ±2-octanol) was “ins” and the “Gelation effectiveness (Geff)” value [3, 5] was 2.7+3.0 mL. For the same compound, the “Gelation effectiveness (Geff)” value [3, 6] was 1.3+1.6 mL and the “Gelation effectiveness (Geff)” value [3, 7] was 2.0 mL.
With COC(=O)[C@H](CC(C)C)NC(=O)[C@@H](NC(=O)C(=O)N[C@H](C(=O)N[C@@H](CC(C)C)C(=O)OC)c1ccccc1)c1ccccc1 [4b, (S,S)-N,N'-Oxalyl-bis(phenylglycyl-leucine methyl ester)] the “Gelator effectiveness (Geff)” value ([3]; max. volume immobilized by 10 mg gelator, CH2Cl2, Table 2) was “sol”, the “Gelator effectiveness (Geff)” value ([3]; max. volume immobilized by 10 mg gelator, CH3CN, Table 2) was “cr” and the “Gelator effectiveness (Geff)” value ([3]; max. volume immobilized by 10 mg gelator, H2O/DMF mixture, given as volume + volume, Table 2) was “cr”. The “Gelator effectiveness (Geff)” value ([3]; max. volume immobilized by 10 mg gelator, H2O/DMSO mixture, given as volume + volume, Table 2) was 0.2+0.5 mL, the “Gelator effectiveness (Geff)” value ([3]; max. volume immobilized by 10 mg gelator, H2O, Table 2) was “ins” and the “Gelator effectiveness (Geff)” value ([3]; max. volume immobilized by 10 mg gelator, THF, Table 2) was “sol”. The “Gelator effectiveness (Geff)” value ([3]; max. volume immobilized by 10 mg gelator, decalin, Table 2) was 4.8 mL, the “Gelator effectiveness (Geff)” value ([3]; max. volume immobilized by 10 mg gelator, p-xylene, Table 2) was 1.1 mL and the “Gelator effectiveness (Geff)” value ([3]; max. volume immobilized by 10 mg gelator, tetralin, Table 2) was 0.9 mL. The “Gelator effectiveness (Geff)” value ([3]; max. volume immobilized by 10 mg gelator, toluene, Table 2) was 1.25 mL.
With bis(Leu)oxalamide [reference compound] the “Gelator effectiveness (Geff)” value ([3]; max. volume immobilized by 10 mg gelator, CH2Cl2 + DMSO (footnote a), given as volume + volume, Table 1) was 1.5+0.05^a mL, the “Gelator effectiveness (Geff)” value ([3]; max. volume immobilized by 10 mg gelator, CH3CN, Table 1) was 0.95 mL and the “Gelator effectiveness (Geff)” value ([3]; max. volume immobilized by 10 mg gelator, EtOH, Table 1) was 1.5 mL. The “Gelator effectiveness (Geff)” value ([3]; max. volume immobilized by 10 mg gelator, H2O/DMF mixture, given as volume + volume, Table 1) was “cr”, the “Gelator effectiveness (Geff)” value ([3]; max. volume immobilized by 10 mg gelator, H2O/DMSO mixture, given as volume + volume, Table 1) was 0.8+0.4 mL and the “Gelator effectiveness (Geff)” value ([3]; max. volume immobilized by 10 mg gelator, THF, Table 1) was 0.4 mL. For the same compound, the “Gelator effectiveness (Geff)” value ([3]; max. volume immobilized by 10 mg gelator, decalin, Table 1) was 0.2 mL, the “Gelator effectiveness (Geff)” value ([3]; max. volume immobilized by 10 mg gelator, p-xylene, Table 1) was 2.45 mL and the “Gelator effectiveness (Geff)” value ([3]; max. volume immobilized by 10 mg gelator, tetralin, Table 1) was 3.0 mL. The “Gelator effectiveness (Geff)” value ([3]; max. volume immobilized by 10 mg gelator, toluene, Table 1) was 1.95 mL, the “Gelator effectiveness (Geff)” value ([3]; max. volume immobilized by 10 mg gelator, ±2-octanol, Table 1) was 10.95 mL and the “Gelator effectiveness (Geff)” value ([3]; maximal volume of solvent immobilized by 10 mg of gelator, solvent H2O, Table 1) was 0.4 mL.
In the case of NC(=O)[C@@H](NC(=O)[C@@H](NC(=O)C(=O)N[C@H](C(=O)N[C@H](C(N)=O)c1ccccc1)c1ccccc1)c1ccccc1)c1ccccc1 [3c, bis(PhgPhgNH2)], the “Gelation effectiveness (Geff)” value ([1]; CH2Cl2) is reported as “ins”, the “Gelation effectiveness (Geff)” value ([1]; CH3CN) is reported as “ins” and the “Gelation effectiveness (Geff)” value ([1]; EtOH) is reported as “ins”. The “Gelation effectiveness (Geff)” value ([1]; H2O) was “ins”, the “Gelation effectiveness (Geff)” value ([1]; THF) was “ins” and the “Gelation effectiveness (Geff)” value ([1]; p-xylene) was “ins”. For the same compound, the “Gelation effectiveness (Geff)” value ([1]; tetralin) was “ins”, the “Gelation effectiveness (Geff)” value ([1]; toluene) was “ins” and the “Gelation effectiveness (Geff)” value ([1]; ±2-octanol) was “ins”. The “Gelation effectiveness (Geff)” value ([2]; H2O/DMF mixture, given as volume + volume) was “cr” and the “Gelation effectiveness (Geff)” value ([2]; H2O/DMSO mixture, given as volume + volume) was “cr”.
For O=C(N[C@@H](Cc1ccccc1)C(=O)N[C@@H](Cc1ccccc1)C(=O)O)C(=O)N[C@@H](Cc1ccccc1)C(=O)N[C@@H](Cc1ccccc1)C(=O)O [5a, (S,S)-N,N'-Oxalyl-bis(phenylalanyl-phenylalanine)], the solubility in water [4] was “insoluble”.
